Five molecules from US20260347409A1, “CHEMICALLY MODIFIED POLYPEPTIDE” (SUZHOU GLENKOL PHARMA TECHNOLOGY CO., LTD., priority 2023, published 2026) can be followed below.

Where a SMILES comes first, the peptide text is derived from it. Where no end group is shown, it is not given here. [ ]: non-standard residue; d: D form. NMeY = CN[C@@H](Cc1ccc(O)cc1)C(=O)O

A short description of data set [1]: Pharmacokinetic characteristics in rats after intravenous administration (plasma, LC-MS/MS). The format is in vivo. The conditions noted are these: SD rats, intravenous (tail vein), 10 mg/kg; for MRT inf: rat. As to the method:
Experimental Example 2: Pharmacokinetic Characteristics of Various Compounds in Rats
Intravenous administration: Three SD rats per group were administered the compounds of Example 1, Example 2, Example 3, Example 6, Example 7, Example 17, and Example 19 via the tail vein, respectively, at a dose of 10 mg/kg. all SD rats were allowed free access to food and water after administration. Plasma was collected 3 min, 10 min, 30 min, 1 h, 2 h, 6 h, 10 h, and 24 h after administration, with 3 rats per time point.
Sample processing: Whole blood was anticoagulated with EDTA-K2. Within 30 minutes of collection, the blood was centrifuged at 3000 g for 10 minutes at 2-8 °C. After centrifugation, the separated plasma was transferred to new 1.5 mL centrifuge tubes and stored at −80 °C.
Analytical method: The concentrations of each compounds in rat plasma were determined by LC-MS/MS using Shimadzu LC30AD and AB Sciex QTRAP 6500+instruments. The relevant pharmacokinetic parameters after administration were calculated.

Another data set deals with PC-12 cells. Kind of data set: Cell viability of PC-12 neural cells under glutamate stimulation (excitotoxic cell death model, propidium iodide/Hoechst staining). The format is cell-based, rat. The conditions noted are these: for Normalized cell viability (%): 10 nM compound, 30 min pretreatment, then glutamate stimulation 24 h, normalized to positive control MK-801; for EC50: dose-response relationship in promoting the viability of PC-12 neurons, glutamate stimulation. The protocol:
1.1. Culture of PC-12 Cell Line and Establishment of Excitotoxic Cell Death Model
PC-12 cells (a […] cell line derived from rat adrenal medulla) were cultured in DMEM/F12 complete medium until eaching 80-90% confluence. The cells were then digested, collected, resuspended, and seeded at density of 5×10^4 cells per well in a 24-well plate precoated with coverslips. Following 26 hours of cell culture, excitotoxic cell death was induced by glutamate stimulation. For model establishment: an appropriate amount of glutamate was weighed and dissolved in DMEM/F12 medium to prepare a stock solution. After filtration, the stock solution was diluted with culture medium and administered to the cells via medium replacement. The cells were further incubated for 24 hours after administration.
1.2 Administration of Small Molecules
Prior to glutamate modeling, cells incubated as described in the previous step were pretreated with 10 nM of the polypeptide compound according to the present application for 30 minutes, followed by glutamate stimulation.
1.3. Propidium Iodide Staining
Cells treated with the polypeptide compound according to the present application were stained with propidium iodide to assess cell death. After discarding the culture medium, the cells were washed with PBS, and propidium iodide/Hoechst was added. After incubating for 30 minutes, the cells were removed and the staining solution was discarded. After washing with PBS, the cells were fixed and mounted, and subjected to image acquisition under a fluorescence microscope. The number of propidium iodide-positive cells and Hoechst-positive cells in the acquired images was counted to calculate the cell viability. MK-801 was used as the positive control compound. The normalized cell viability was calculated using the following formula: (cell viability of the compound group −cell viability of the glutamate group)/(cell viability of the positive control group −cell viability of the glutamate group)×100%.
Based on the above dose-response studies of the compound, the inhibitory effects of different small-molecule compounds at the same dose (10 nM) against excitotoxic death in PC-12 neurons cells were further compared.
Based on this, the dose-response relationship of the neuroprotective effect of the polypeptide compounds according to the present application on PC-12 neural cells was analyzed.

Usually Vss stands for the apparent volume that relates the amount in the body to the concentration in plasma or blood. Read a low Vss as confinement near the circulation. Broadly, the MRT inf is the average time that molecules of a dose stay in the body. For orientation: EC50 means the concentration at which the effect is half-maximal. Low readings indicate higher potency in that assay, high ones lower potency in that assay. In the case of `CN[C@@H](Cc1ccc(O)cc1)C(=O)NCC(=O)N[C@@H](CCCNC(=N)N)C(=O)N[C@@H](CCCCN)C(=O)N[C@@H](CCCCN)C(=O)N[C@@H](CCCNC(=N)N)C(=O)N[C@@H](CCCNC(=N)N)C(=O)N[C@@H](CCC(N)=O)C(=O)N[C@@H](CCCNC(=N)N)C(=O)N[C@@H](CCCNC(=N)N)C(=O)N[C@@H](CCCNC(=N)N)C(=O)N[C@@H](CCCCN)C(=O)N[C@@H](CCCCN)C(=O)N[C@@H](CC(N)=O)C(=O)N[C@@H](CCCNC(=N)N)C(=O)N[C@@H](CC(N)=O)C(=O)N[C@@H](CCCCN)C(=O)N[C@@H](CC(C)C)C(=O)N[C@@H](CCCNC(=N)N)C(=O)N[C@@H](CCCNC(=N)N)C(=O)N[C@@H](CCC(N)=O)C(=O)N[C@@H](Cc1c[nH]cn1)C(=O)N[C@@H](CO)C(=O)N[C@@H](Cc1ccc(O)cc1)C(=O)O` [Example 2] (H-[NMeY]GRKKRRQRRRKKNRNKLRRQHSY-OH), in data set [1], the “T1/2” value turned out to be 1.73 h, the “Vss” value stood at 3.94 L/kg and the MRT inf was 1.84 h. Besides, in the data set with PC-12 cells, the “Normalized cell viability (%)” value was 65.56% and a half-maximal effect (EC50) was put at 12.6 nM.
Take `CN[C@@H](Cc1ccc(O)cc1)C(=O)NCC(=O)N[C@@H](CCCNC(=N)N)C(=O)N[C@@H](CCCCN)C(=O)N[C@@H](CCCCN)C(=O)N[C@@H](CCCNC(=N)N)C(=O)N[C@@H](CCCNC(=N)N)C(=O)N[C@@H](CCC(=O)O)C(=O)N[C@@H](CCCNC(=N)N)C(=O)N[C@@H](CCCNC(=N)N)C(=O)N[C@@H](CCCNC(=N)N)C(=O)N[C@@H](CCCCN)C(=O)N[C@@H](CCCCN)C(=O)N[C@@H](CC(=O)O)C(=O)N[C@@H](CCCNC(=N)N)C(=O)N[C@@H](CC(=O)O)C(=O)N[C@@H](CCCCN)C(=O)N[C@@H](CC(C)C)C(=O)N[C@@H](CCCNC(=N)N)C(=O)N[C@@H](CCCNC(=N)N)C(=O)N[C@@H](CCC(=O)O)C(=O)N[C@@H](Cc1c[nH]cn1)C(=O)N[C@@H](CO)C(=O)N[C@@H](Cc1ccc(O)cc1)C(N)=O` [Example 19] (H-[NMeY]GRKKRRERRRKKDRDKLRREHSY-NH2): in data set [1], the “T1/2” value came to 1.16 h, the “Vss” value turned out to be 9.11 L/kg and the MRT inf was found to be 1.73 h. Moreover, in the data set on PC-12 cells, the “Normalized cell viability (%)” value amounted to 87.71%.
For “Ac-YGRKKRRQRRRKKNRNKLRRQHSY-NH2 [Example 7]”, in data set [1], the “T1/2” value amounted to 1.51 h, the “Vss” value was 3.58 L/kg and the MRT inf came to 1.93 h. The molecule further registered an EC50 in the data set with PC-12 cells of 8.72 nM.
Consider “YGRKKRRQRRRKKNRNKLRRQHSY [Example 1, reference compound]”, for which, in data set [1], the “T1/2” value was 0.76 h, the “Vss” value is 1.29 L/kg and the MRT inf is 0.87 h. Moreover, in the data set with PC-12 cells, the “Normalized cell viability (%)” value is 41.00% and the EC50 came to 23.6 nM.
As to “YGRKKRRQRRRKKNRNKLRRQHSY-NH2 [Example 6]”, in data set [1], the “T1/2” value is 1.23 h, the “Vss” value was 2.53 L/kg and the MRT inf is 1.65 h. The molecule further returned an EC50 in the data set with PC-12 cells of 13.5 nM.
